Assay results from paper PMC4099364, “Comparing Binding Modes of Analogous Fragments Using NMR in Fragment-Based Drug Design: Application to PRDX5” (PLoS ONE, 2014).

Biological target: T1, human peroxiredoxin 5 (PRDX5) (Homo sapiens, UniProt P30044)
T1 construct: 6xHis-tagged, pQE-30, E. coli M15, 15N-labelled for HSQC; reduced with DTT
T1 sequence (P30044 54-214): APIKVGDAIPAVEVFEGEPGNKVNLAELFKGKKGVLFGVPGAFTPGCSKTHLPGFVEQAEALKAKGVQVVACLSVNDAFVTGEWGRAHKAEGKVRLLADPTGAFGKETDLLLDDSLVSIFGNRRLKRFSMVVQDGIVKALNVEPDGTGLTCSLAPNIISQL
Experiment: […]-HSQC NMR titration (combined CSP fit)
Type: binding

Oc1cccc(-c2ccccc2)c1O [compound 5, 2,3 dihydroxy-biphenyl]
Kd: 390 ± 50 µM
